Test results reported in US20140308733A1, “METHOD FOR INDUCING GERMINATION OF SPORE FORMING BACTERIUM” (CALPIS CO., LTD., priority 2011, published 2014).

Columns and labels:
Test in all cases: Germination induction, change of turbidity (630 nm) of spore suspension
Assay type in all cases: cell-based
Conditions in all cases: 300 ppm; for turbidity (630 nm): 37° C., 150 rpm
[1] = test system: Aeribacillus pallidus TK6004 (FERM BP-08597)
Protocol: (§1) It is possible to determine whether spores have germinated, after measuring an OD 630 value (turbidity at 630 nm) of the liquid culture, based on decrease in the value (Literature: Microbiology, (1950), 4, 3, 330-338). Briefly, bacterial cells after culturing are washed with distilled water and diluted with distilled water to OD 630=1.0, which is then mixed with an equal volume of a germination induction solution, and the turbidity at 630 nm is measured by a UV spectrophotometer at room temperature.
(§2) TS culture media (Difco, Trypticase Soy Broth) were inoculated respectively with 11 strains listed in Table 1 and cultured at 50° C. with respect to Geobacillus stearothermophilus NBRC13737 and Aeribacillus pallidus TK6004 (FERM BP-08597), and at 37° C. with respect to the other 9 strains, until respective colonies were established. Then with respect to each of 11 strains, a loop full of a single colony was scratched by a platinum loop and suspended in 500 μL of sterilized water. In 1000 g of water was dissolved 8.0 g of a nutrient agar culture medium (Difco, Nutrient Broth), followed by high pressure steam sterilization (121° C., 15 min) to prepare a plate medium. The nutrient agar culture medium was smeared with each 100 μL of the suspension and cultured at 37° C. for 3 days.
(§3) Then, bacterial cells were suspended using a platinum loop in 500 μL of sterilized water, and the bacterial suspension was subjected to a heat shock at 65° C. for 35 min. Each 100 μL of the heat-shocked bacterial suspension and a not-heat-shocked bacterial suspension were smeared on the TS culture media respectively and cultured at 50° C. or 37° C. for 1 day. As the results of the cultures, colony formation was confirmed also with respect to the heat-shocked bacterial suspensions, to confirm that spores were formed for all of 11 strains. Further, since the bacteria were not stained by Gram staining, it was reconfirmed that spores were formed.
(§4) After confirming the spore formation, the bacterial cells were collected by a bacteria spreader, suspended in 10 mL of sterilized distilled water, and then centrifuged (8340×g, 4° C., 15 min). The supernatant was removed and thereafter the bacterial cells were washed twice with 10 mL of sterilized water. After washing, the bacterial cells were suspended in 5 mL of sterilized water, and the suspension was filtrated by sterilized Kimwipes. The filtrate was centrifuged (8340×g, 4° C., 15 min) to remove the supernatant, and the rest was adjusted to the turbidity (at 630 nm) of 1.0 with sterilized water.
(§5) After dissolving with stirring using a stirring rod with a propeller, filtration sterilization (0.45 μm filter) was conducted to prepare each 600 ppm-solution.
(§6) Five hundred (500) μL of each solution and 500 μL of each bacterial spore suspension were mixed. […] Defining the time point of mixing as the reaction initiation (0 min), and continuing shaking (150 rpm) at 37° C., the turbidity (630 nm) was measured at 10, 20, 30, 40, 50, 60, 90, 120, and 180 min after the reaction initiation.
(§7) Since the turbidity at 630 nm decreases by germination of spores, it has been known that the turbidity at 630 nm can be used to determine the germination rate.

[2] = test system: Bacillus amyloliquefaciens (NBRC 3032)
Protocol: as §1, §2, §3, §4, §5, §6, §7

[3] = test system: Bacillus coagulans (NBRC 3887)
Protocol: as §1, §2, §3, §4, §5, §6, §7

[4] = test system: Bacillus licheniformis (NBRC 12195)
Protocol: as §1, §2, §3, §4, §5, §6, §7

[5] = test system: Bacillus subtilis C-3102 (FERM BP-1096)
Protocol: as §1, §2, §3, §4, §5, §6, §7

[6] = test system: Bacillus subtilis sp spizizenii (NBRC 101239)
Protocol: as §1, §2, §3, §4, §5, §6, §7

[7] = test system: Geobacillus stearothermophilus (NBRC 13737)
Protocol: as §1, §2, §3, §4, §5, §6, §7

[8] = 0 min after reaction initiation
[9] = 10 min after reaction initiation
[10] = 20 min after reaction initiation
[11] = 30 min after reaction initiation
[12] = 40 min after reaction initiation
[13] = 50 min after reaction initiation
[14] = 60 min after reaction initiation
[15] = 90 min after reaction initiation
[16] = 120 min after reaction initiation
[17] = 180 min after reaction initiation

Which “turbidity (630 nm)” value [1, 8] does the source give for COc1cc(/C=C/C(=O)O)ccc1O [Ferulic acid, ferulic acid] here?
Its value is 0.484.

What about the “turbidity (630 nm)” value [1, 9] of the same compound?
Its value is 0.450.

What about the “turbidity (630 nm)” value [1, 10] of the same compound?
The value was 0.393.

And the “turbidity (630 nm)” value [1, 11]?
Its value is 0.276.

What about the “turbidity (630 nm)” value [1, 12] of the same compound?
The value was 0.193.

What about the “turbidity (630 nm)” value [1, 13] of the same compound?
Its value is 0.124.

What about the “turbidity (630 nm)” value [1, 14] of the same compound?
Its value is 0.080.

What about the “turbidity (630 nm)” value [1, 15] of the same compound?
The value was 0.040.

And the “turbidity (630 nm)” value [1, 16]?
Its value is 0.016.

And the “turbidity (630 nm)” value [1, 17]?
Its value is 0.016.

What about the “germination confirmed by turbidity decrease” value ([1]; up to 180 min) of the same compound?
The value was “the turbidity decreased”.

And the “turbidity (630 nm)” value [2, 8]?
Its value is 0.526.

What about the “turbidity (630 nm)” value [2, 9] of the same compound?
The value was 0.505.

What about the “turbidity (630 nm)” value [2, 10] of the same compound?
The value was 0.480.

What about the “turbidity (630 nm)” value [2, 11] of the same compound?
The value was 0.431.

And the “turbidity (630 nm)” value [2, 12]?
The value was 0.397.

What about the “turbidity (630 nm)” value [2, 13] of the same compound?
The value was 0.353.

What about the “turbidity (630 nm)” value [2, 14] of the same compound?
The value was 0.316.

And the “turbidity (630 nm)” value [2, 15]?
The value was 0.269.

And the “turbidity (630 nm)” value [2, 16]?
The value was 0.245.

And the “turbidity (630 nm)” value [2, 17]?
Its value is 0.216.

What about the “germination confirmed by turbidity decrease” value ([2]; up to 180 min) of the same compound?
The value was “the turbidity decreased”.

What about the “turbidity (630 nm)” value [3, 8] of the same compound?
Its value is 0.566.

What about the “turbidity (630 nm)” value [3, 9] of the same compound?
The value was 0.531.

What about the “turbidity (630 nm)” value [3, 10] of the same compound?
Its value is 0.500.

What about the “turbidity (630 nm)” value [3, 11] of the same compound?
Its value is 0.454.

What about the “turbidity (630 nm)” value [3, 12] of the same compound?
Its value is 0.423.

And the “turbidity (630 nm)” value [3, 13]?
The value was 0.372.

And the “turbidity (630 nm)” value [3, 14]?
Its value is 0.340.

What about the “turbidity (630 nm)” value [3, 15] of the same compound?
Its value is 0.300.

What about the “turbidity (630 nm)” value [3, 16] of the same compound?
The value was 0.247.

What about the “turbidity (630 nm)” value [3, 17] of the same compound?
Its value is 0.209.

What about the “germination confirmed by turbidity decrease” value ([3]; up to 180 min) of the same compound?
Its value is “the turbidity decreased”.

What about the “turbidity (630 nm)” value [4, 8] of the same compound?
The value was 0.541.

What about the “turbidity (630 nm)” value [4, 9] of the same compound?
Its value is 0.521.

And the “turbidity (630 nm)” value [4, 10]?
Its value is 0.502.

What about the “turbidity (630 nm)” value [4, 11] of the same compound?
The value was 0.480.

What about the “turbidity (630 nm)” value [4, 12] of the same compound?
The value was 0.449.

What about the “turbidity (630 nm)” value [4, 13] of the same compound?
Its value is 0.430.

And the “turbidity (630 nm)” value [4, 14]?
The value was 0.392.

What about the “turbidity (630 nm)” value [4, 15] of the same compound?
The value was 0.368.

And the “turbidity (630 nm)” value [4, 16]?
Its value is 0.324.

And the “turbidity (630 nm)” value [4, 17]?
The value was 0.290.

What about the “germination confirmed by turbidity decrease” value ([4]; up to 180 min) of the same compound?
The value was “the turbidity decreased”.

And the “turbidity (630 nm)” value [5, 8]?
The value was 0.602.

And the “turbidity (630 nm)” value [5, 9]?
Its value is 0.578.

What about the “turbidity (630 nm)” value [5, 10] of the same compound?
Its value is 0.558.

What about the “turbidity (630 nm)” value [5, 11] of the same compound?
Its value is 0.548.

What about the “turbidity (630 nm)” value [5, 12] of the same compound?
Its value is 0.535.

And the “turbidity (630 nm)” value [5, 13]?
The value was 0.506.

And the “turbidity (630 nm)” value [5, 14]?
Its value is 0.493.

And the “turbidity (630 nm)” value [5, 15]?
The value was 0.471.

What about the “turbidity (630 nm)” value [5, 16] of the same compound?
Its value is 0.430.

What about the “turbidity (630 nm)” value [5, 17] of the same compound?
The value was 0.335.

And the “germination confirmed by turbidity decrease” value ([5]; up to 180 min)?
The value was “the turbidity decreased”.

What about the “turbidity (630 nm)” value [6, 8] of the same compound?
Its value is 0.534.

And the “turbidity (630 nm)” value [6, 9]?
The value was 0.512.

And the “turbidity (630 nm)” value [6, 10]?
The value was 0.495.

And the “turbidity (630 nm)” value [6, 11]?
Its value is 0.471.

And the “turbidity (630 nm)” value [6, 12]?
The value was 0.458.

What about the “turbidity (630 nm)” value [6, 13] of the same compound?
Its value is 0.439.

What about the “turbidity (630 nm)” value [6, 14] of the same compound?
Its value is 0.414.

What about the “turbidity (630 nm)” value [6, 15] of the same compound?
Its value is 0.362.

And the “turbidity (630 nm)” value [6, 16]?
Its value is 0.306.

And the “turbidity (630 nm)” value [6, 17]?
The value was 0.224.

What about the “germination confirmed by turbidity decrease” value ([6]; up to 180 min) of the same compound?
The value was “germination was confirmed”.

And the “turbidity (630 nm)” value [7, 8]?
Its value is 0.560.

And the “turbidity (630 nm)” value [7, 9]?
The value was 0.551.

What about the “turbidity (630 nm)” value [7, 10] of the same compound?
The value was 0.537.

What about the “turbidity (630 nm)” value [7, 11] of the same compound?
The value was 0.541.

What about the “turbidity (630 nm)” value [7, 12] of the same compound?
Its value is 0.489.

What about the “turbidity (630 nm)” value [7, 13] of the same compound?
Its value is 0.473.

And the “turbidity (630 nm)” value [7, 14]?
Its value is 0.459.

What about the “turbidity (630 nm)” value [7, 15] of the same compound?
The value was 0.397.

And the “turbidity (630 nm)” value [7, 16]?
The value was 0.326.

What about the “turbidity (630 nm)” value [7, 17] of the same compound?
Its value is 0.202.

What about the “germination confirmed by turbidity decrease” value ([7]; up to 180 min) of the same compound?
Its value is “the turbidity decreased”.
